Experimental findings from patent US8017612B2, “Piperazine compound and use thereof as a HCV polymerase inhibitor” (priority 2006, dated 2011) are described below.

Where a name gives a salt, the structure may show the parent alone. A value given as a limit tells only on which side of the number the result lay.

The target of assay [1] is T1, HCV polymerase (NS5B) type 1a (Hepatitis C virus genotype 1a, UniProt P26664).
T1 construct: made in house; host or cells: Escherichia coli (by the 'similar method' of the 1b enzyme)
Kind of assay: Assay of enzyme (HCV polymerase) inhibitory activity, type 1a enzyme. The assay is classed as biochemical, HCV type 1a (cloned from the blood of patients). As to conditions: HCV polymerase inhibitory activity (IC50), 1a, type 1a enzyme 1.5 μg/ml, 25° C., 60 min. An outline of the steps: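 IC50 values derive from radioactivity of newly synthesized RNA with versus without test compound. The enzyme was C-terminally truncated type 1a NS5B, 1.5 μg/ml, run 60 min at 25° C with 3H-UTP-labelled nucleotides.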

The target in assay [2] is T2, HCV polymerase (NS5B) type 1b (Hepatitis C virus genotype 1b, UniProt P26663).
T2 construct: a region encoding NS5B (J Virol 1991 March, 65(3), 1105-13, 544 amino acids after deletion of 47 amino acids on the C-terminal); 6xHis (C); made in house; host or cells: Escherichia coli
Description: Assay of enzyme (HCV polymerase) inhibitory activity, type 1b enzyme. Particulars: HCV polymerase inhibitory activity (IC50), 1b, type 1b enzyme 0.5 μg/ml, 25° C., 60 min. The assay is classed as biochemical, HCV BK strain (type 1b). An outline of the steps:
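Polymerase activity was followed as radiolabelled UTP incorporation by E. coli-expressed, His-tagged NS5B of HCV type 1b lacking its last 47 residues. Conditions: 2 μM UTP, 50 μM other NTPs, Mg2+ buffer at pH 7.5, 25 °C for 60 min. Inhibition relative to compound-free reactions gave IC50.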

One may read the IC50 as the concentration that gives 50% inhibition. The low end stands for greater potency, the high end for weaker potency. Turning to `CN(C)c1ccc(CNC(=O)C2CN(C(=O)Cc3ccccn3)CCN2S(=O)(=O)c2ccc(I)cc2)cc1` (stereo not drawn) [Example 153, 1-(4-iodo-benzenesulfonyl)-4-(2-pyridin-2-yl-acetyl)-piperazine-2-carboxylic acid 4-dimethylamino-benzylamide], the IC50 in assay [1] and in assay [2] was over 1 µM throughout.
Consider `CN(C)c1ccc(CNC(=O)C2CN(C(=O)Cc3cccnc3)CCN2S(=O)(=O)c2ccc(I)cc2)cc1` (stereo not drawn) [Example 154, 1-(4-iodo-benzenesulfonyl)-4-(2-pyridin-3-yl-acetyl)-piperazine-2-carboxylic acid 4-dimethylamino-benzylamide], for which the IC50 in assay [1] and in assay [2] was 0.1 to 1 µM throughout.
`CC(C)c1ccc(S(=O)(=O)N2CCN(c3nc4c(s3)Cc3ccccc3-4)CC2C(=O)NCc2ccc(C(F)(F)F)cc2)cc1` (stereo not drawn) [Example 155, 4-(8H-indeno[1,2-d]thiazol-2-yl)-1-(4-isopropyl-benzenesulfonyl)-piperazine-2-carboxylic acid 4-trifluoromethyl-benzylamide]: the IC50 in assay [1] and in assay [2] was over 1 µM each time.
On to `CC(C)c1ccc(S(=O)(=O)N2CCN(c3nc4c(s3)CCCC4)CC2C(=O)NCc2ccc(C(F)(F)F)cc2)cc1` (stereo not drawn) [Example 156, 1-(4-isopropyl-benzenesulfonyl)-4-(4,5,6,7-tetrahydro-benzothiazol-2-yl)-piperazine-2-carboxylic acid 4-trifluoromethyl-benzylamide], for which the IC50 in assay [1] and in assay [2] was over 1 µM each time.
With `CN(C)c1ccc(CNC(=O)[C@H]2CN(C(=O)CN)CCN2S(=O)(=O)c2ccc(I)cc2)cc1` [Example 157, (R)-4-(2-amino-acetyl)-1-(4-iodo-benzenesulfonyl)-piperazine-2-carboxylic acid 4-dimethylamino-benzylamide hydrochloride], the IC50 in assay [1] and in assay [2] was over 1 µM throughout.
Turning to `CN(C)c1ccc(CNC(=O)[C@H]2CN(C(=O)CN3CCCCC3)CCN2S(=O)(=O)c2ccc(I)cc2)cc1` [Example 158, (R)-1-(4-iodo-benzenesulfonyl)-4-(2-piperidin-1-yl-acetyl)-piperazine-2-carboxylic acid 4-dimethylamino-benzylamide], the IC50 in assay [1] and in assay [2] was over 1 µM throughout.
`CN(C)c1ccc(CNC(=O)[C@H]2CN(C(=O)CN3CCCC3)CCN2S(=O)(=O)c2ccc(I)cc2)cc1` [Example 159, (R)-1-(4-iodo-benzenesulfonyl)-4-(2-pyrrolidin-1-yl-acetyl)-piperazine-2-carboxylic acid 4-dimethylamino-benzylamide]: the IC50 in assay [1] and in assay [2] was over 1 µM each time.
Regarding `CN(C)c1ccc(CNC(=O)[C@H]2CN(C(=O)CN3CCOCC3)CCN2S(=O)(=O)c2ccc(I)cc2)cc1` [Example 160, (R)-1-(4-iodo-benzenesulfonyl)-4-(2-morpholin-4-yl-acetyl)-piperazine-2-carboxylic acid 4-dimethylamino-benzylamide], the IC50 in assay [1] and in assay [2] was 0.1 to 1 µM each time.
As for `CC(=O)N1CCN(S(=O)(=O)c2ccc(Cl)cc2Cl)C(C(=O)NCc2ccc(C(F)(F)F)cc2)C1` (stereo not drawn) [Example 161, 4-acetyl-1-(2,4-dichloro-benzenesulfonyl)-piperazine-2-carboxylic acid 4-trifluoromethyl-benzylamide], the IC50 in assay [1] and in assay [2] was over 1 µM throughout.
On to `CCC(CC)c1ccc(S(=O)(=O)N2CCN(C(C)=O)CC2C(=O)NCc2ccc(C(F)(F)F)cc2)cc1` (stereo not drawn) [Example 162, 4-acetyl-1-[4-(1-ethyl-propyl)-benzenesulfonyl]-piperazine-2-carboxylic acid 4-trifluoromethyl-benzylamide], for which the IC50 in assay [1] and in assay [2] was over 1 µM each time.
As to `CCC(CC)c1ccc(CNC(=O)C2CN(C(C)=O)CCN2S(=O)(=O)c2ccc(C(C)C)cc2)cc1` (stereo not drawn) [Example 163, 4-acetyl-1-(4-isopropyl-benzenesulfonyl)-piperazine-2-carboxylic acid 4-(1-ethyl-propyl)-benzylamide], the IC50 in assay [1] and in assay [2] was 0.1 to 1 µM throughout.
Turning to `CC(=O)N1CCN(S(=O)(=O)c2ccc3ccccc3c2)C(C(=O)NCc2ccc(C(F)(F)F)cc2)C1` (stereo not drawn) [Example 164, 4-acetyl-1-(naphthalene-2-sulfonyl)-piperazine-2-carboxylic acid 4-trifluoromethyl-benzylamide], the IC50 in assay [1] and in assay [2] was over 1 µM throughout.
In the case of `CC(=O)N1CCN(S(=O)(=O)c2cccc(Br)c2)C(C(=O)NCc2ccc(C(F)(F)F)cc2)C1` (stereo not drawn) [Example 165, 4-acetyl-1-(3-bromo-benzenesulfonyl)-piperazine-2-carboxylic acid 4-trifluoromethyl-benzylamide], the IC50 in assay [1] and in assay [2] was over 1 µM throughout.
Take `COC(=O)CCc1ccc(S(=O)(=O)N2CCN(C(C)=O)CC2C(=O)NCc2ccc(C(F)(F)F)cc2)cc1` (stereo not drawn) [Example 166, 3-{4-[4-acetyl-2-(4-trifluoromethyl-benzylcarbamoyl)-piperazine-1-sulfonyl]-phenyl}-propionic acid methyl ester]: the IC50 in assay [1] and in assay [2] was over 1 µM throughout.
Turning to `CC(=O)N1CCN(S(=O)(=O)c2ccc(C3CCCCC3)cc2)C(C(=O)NCc2ccc(C(F)(F)F)cc2)C1` (stereo not drawn) [Example 167, 4-acetyl-1-(4-cyclohexyl-benzenesulfonyl)-piperazine-2-carboxylic acid 4-trifluoromethyl-benzylamide], the IC50 in assay [1] and in assay [2] was over 1 µM each time.
For the molecule `CC(=O)N1CCN(S(=O)(=O)c2cccc(C(=O)O)c2)C(C(=O)NCc2ccc(C(F)(F)F)cc2)C1` (stereo not drawn) [Example 168, 3-[4-acetyl-2-(4-trifluoromethyl-benzylcarbamoyl)-piperazine-1-sulfonyl]-benzoic acid], the IC50 in assay [1] and in assay [2] was over 1 µM each time.
In the case of `CC(=O)N1CCN(S(=O)(=O)c2ccc(C(C)C)cc2)[C@@H](C(=O)NCc2ccc(C(C)(C)CO)cc2)C1` [Example 169, (R)-4-acetyl-1-(4-isopropyl-benzenesulfonyl)-piperazine-2-carboxylic acid 4-(2-hydroxy-1,1-dimethyl-ethyl)-benzylamide], the IC50 in assay [1] and in assay [2] was over 1 µM in each case.
On to `CCOC(=O)c1csc(N2CCN(S(=O)(=O)c3ccc(C(C)C)cc3)C(C(=O)NCc3ccc(C(F)(F)F)cc3)C2)n1` (stereo not drawn) [Example 170, 2-[4-(4-isopropyl-benzenesulfonyl)-3-(4-trifluoromethyl-benzylcarbamoyl)-piperazin-1-yl]-thiazole-4-carboxylic acid ethyl ester], for which the IC50 in assay [1] and in assay [2] was over 1 µM in each case.
In the case of `CC(C)c1ccc(S(=O)(=O)N2CCN(c3nc(C(=O)O)cs3)CC2C(=O)NCc2ccc(C(F)(F)F)cc2)cc1` (stereo not drawn) [Example 171, 2-[4-(4-isopropyl-benzenesulfonyl)-3-(4-trifluoromethyl-benzylcarbamoyl)-piperazin-1-yl]-thiazole-4-carboxylic acid], the IC50 in assay [1] and in assay [2] was over 1 µM each time.
For the molecule `CC(C)c1ccc(CNC(=O)[C@H]2CN(C(=O)Cc3ccccc3)CCN2S(=O)(=O)c2ccc(C(F)(F)F)cc2)cc1` [Example 172, (R)-4-phenylacetyl-1-(4-trifluoromethyl-benzenesulfonyl)-piperazine-2-carboxylic acid 4-isopropyl-benzylamide], the values for the IC50 in assay [1] and in assay [2] were over 1 µM and 0.1 to 1 µM, respectively.
Regarding `COC(=O)CCC(=O)N1CCN(S(=O)(=O)c2ccc(C(F)(F)F)cc2)[C@@H](C(=O)NCc2ccc(C(C)C)cc2)C1` [Example 173, 4-[(R)-3-(4-isopropyl-benzylcarbamoyl)-4-(4-trifluoromethyl-benzenesulfonyl)-piperazin-1-yl]-4-oxo-butyric acid methyl ester], the IC50 in assay [1] and in assay [2] was 0.1 to 1 µM throughout.
With `COC(=O)CCCC(=O)N1CCN(S(=O)(=O)c2ccc(C(F)(F)F)cc2)[C@@H](C(=O)NCc2ccc(C(C)C)cc2)C1` [Example 174, 5-[(R)-3-(4-isopropyl-benzylcarbamoyl)-4-(4-trifluoromethyl-benzenesulfonyl)-piperazin-1-yl]-5-oxo-pentanoic acid methyl ester], the IC50 in assay [1] and in assay [2] was 0.1 to 1 µM in each case.
In the case of `CC(C)c1ccc(CNC(=O)[C@H]2CN(C(=O)Cc3cccnc3)CCN2S(=O)(=O)c2ccc(C(F)(F)F)cc2)cc1` [Example 175, (R)-4-(2-pyridin-3-yl-acetyl)-1-(4-trifluoromethyl-benzenesulfonyl)-piperazine-2-carboxylic acid 4-isopropyl-benzylamide], the IC50 in assay [1] and in assay [2] was 0.1 to 1 µM each time.
Consider `CC(=O)N1CCN(S(=O)(=O)c2ccc(C(F)(F)F)cc2)[C@@H](C(=O)NCc2ccc(C(C)C)cc2)C1` [Example 176, (R)-4-acetyl-1-(4-trifluoromethyl-benzenesulfonyl)-piperazine-2-carboxylic acid 4-isopropyl-benzylamide], for which the IC50 in assay [1] and in assay [2] was 0.1 to 1 µM in each case.
